Assay results as given in US11661431B2, “Thienopyrrole compounds” (Gilead Sciences, Inc., priority 2021, dated 2023).
Read-outs that look alike come from different tables or passages of the source.

Experiments:
TLR8 = TLR8 (Homo sapiens (Human), UniProt Q9NR97); experiment: TLR8 human peripheral blood mononuclear cell (PBMC) cell-based assay (Compound A as agonist; TNFα and IL12p40 readout); details: TLR8 agonist Compound A at 800 nM, 6 hours, antagonist potency
TLR7 = TLR7 (Homo sapiens (Human), UniProt Q9NYK1); experiment: TLR7 human peripheral blood mononuclear cell (PBMC) cell-based assay (GS-986 as agonist; IL-6 and IFNα readout); details: TLR7 agonist GS-986 at 400 nM, 6 hours, antagonist potency
In short: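 Human PBMCs (100,000 cells/well) preincubated 1 h at 37 °C with antagonist in 10-point dose response, then stimulated with TLR7 agonist for a further 6 h at 37 °C, 5% CO2. Supernatant IL-6 and IFNα measured by electrochemiluminescence immunoassay.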

[1] = human PBMCs, read-out: TLR-8 EC50
[2] = human PBMCs, read-out: TLR-7 EC50

TLR7, sequence (Q9NYK1 27-1049): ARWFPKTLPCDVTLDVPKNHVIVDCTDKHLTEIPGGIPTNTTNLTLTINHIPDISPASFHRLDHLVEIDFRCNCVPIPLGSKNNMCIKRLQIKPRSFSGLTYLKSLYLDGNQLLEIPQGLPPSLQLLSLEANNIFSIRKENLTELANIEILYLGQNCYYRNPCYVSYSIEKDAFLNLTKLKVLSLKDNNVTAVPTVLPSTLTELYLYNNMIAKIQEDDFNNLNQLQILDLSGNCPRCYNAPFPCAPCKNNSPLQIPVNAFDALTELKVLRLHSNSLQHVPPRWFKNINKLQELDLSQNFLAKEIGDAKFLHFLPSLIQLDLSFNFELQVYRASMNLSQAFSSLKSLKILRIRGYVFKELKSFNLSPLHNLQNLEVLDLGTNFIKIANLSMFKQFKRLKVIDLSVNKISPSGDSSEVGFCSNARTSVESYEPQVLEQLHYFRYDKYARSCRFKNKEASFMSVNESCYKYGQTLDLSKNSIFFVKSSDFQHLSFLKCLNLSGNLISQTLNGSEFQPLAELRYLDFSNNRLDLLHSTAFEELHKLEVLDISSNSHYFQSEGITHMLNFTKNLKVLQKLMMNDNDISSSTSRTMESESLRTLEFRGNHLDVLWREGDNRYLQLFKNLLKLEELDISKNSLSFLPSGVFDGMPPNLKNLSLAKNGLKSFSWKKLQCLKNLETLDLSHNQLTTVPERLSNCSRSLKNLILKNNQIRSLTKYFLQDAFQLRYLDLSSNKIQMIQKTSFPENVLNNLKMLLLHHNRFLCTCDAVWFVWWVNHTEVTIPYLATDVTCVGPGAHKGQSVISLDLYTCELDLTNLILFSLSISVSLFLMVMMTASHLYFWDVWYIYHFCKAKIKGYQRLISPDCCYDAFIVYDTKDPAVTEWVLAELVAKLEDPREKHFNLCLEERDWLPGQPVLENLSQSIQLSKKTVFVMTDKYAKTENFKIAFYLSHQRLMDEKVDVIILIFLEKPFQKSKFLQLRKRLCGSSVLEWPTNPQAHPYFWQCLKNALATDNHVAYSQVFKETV
TLR8, sequence (Q9NR97 27-1041): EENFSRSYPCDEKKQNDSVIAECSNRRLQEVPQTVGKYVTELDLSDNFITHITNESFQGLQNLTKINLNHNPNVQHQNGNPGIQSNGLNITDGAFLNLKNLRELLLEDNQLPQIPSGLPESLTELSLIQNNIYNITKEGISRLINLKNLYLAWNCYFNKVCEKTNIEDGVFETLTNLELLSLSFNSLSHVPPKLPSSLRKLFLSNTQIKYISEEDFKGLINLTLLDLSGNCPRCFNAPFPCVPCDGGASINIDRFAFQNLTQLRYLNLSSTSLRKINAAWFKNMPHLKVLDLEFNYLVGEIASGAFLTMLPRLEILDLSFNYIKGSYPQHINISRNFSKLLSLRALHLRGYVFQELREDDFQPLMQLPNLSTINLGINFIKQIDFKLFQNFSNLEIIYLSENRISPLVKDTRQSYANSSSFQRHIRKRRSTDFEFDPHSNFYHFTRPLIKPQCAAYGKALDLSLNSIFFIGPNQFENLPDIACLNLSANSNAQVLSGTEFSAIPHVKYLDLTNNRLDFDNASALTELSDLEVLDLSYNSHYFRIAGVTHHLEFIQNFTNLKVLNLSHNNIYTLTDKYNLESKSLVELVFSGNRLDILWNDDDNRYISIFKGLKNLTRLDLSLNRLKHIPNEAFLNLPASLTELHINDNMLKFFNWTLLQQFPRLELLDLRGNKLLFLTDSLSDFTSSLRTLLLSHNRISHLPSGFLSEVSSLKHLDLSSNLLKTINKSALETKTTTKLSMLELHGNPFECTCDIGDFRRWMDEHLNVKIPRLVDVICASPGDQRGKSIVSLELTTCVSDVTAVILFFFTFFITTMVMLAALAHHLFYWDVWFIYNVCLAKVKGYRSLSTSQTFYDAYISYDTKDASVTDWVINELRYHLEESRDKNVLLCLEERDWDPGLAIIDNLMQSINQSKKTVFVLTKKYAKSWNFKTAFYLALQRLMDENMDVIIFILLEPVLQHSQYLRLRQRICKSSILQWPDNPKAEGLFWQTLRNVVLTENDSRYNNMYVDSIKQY

Structure (SMILES) | EC50 (TLR8; [1]) [nM] | EC50 (TLR7; [2]) [nM] | EC50 (TLR8; TLR-8 EC50, human PBMCs) [nM] | EC50 (TLR7; TLR-7 EC50, human PBMCs) [nM]
Cc1c(-c2[nH]c3sc([C@@H]4C[C@@H]5C[C@H]4CN5CC(=O)OC(C)(C)C)c(C)c3c2C(C)C)cn2ncnc2c1C [Example 179, tert-butyl 2-((1S,4R,5R)-5-(5-(7,8-dimethyl-[1,2,4]triazolo[1,5-a]pyridin-6-yl)-4-isopropyl-3-methyl-6H-thieno[2,3-b]pyrrol-2-yl)-2-azabicyclo[2.2.1]heptan-2-yl)acetate] | 3.53 | 1.71 | – | –
Cc1c(-c2[nH]c3sc([C@@H]4C[C@@H]5C[C@H]4CN5CCS(N)(=O)=O)c(C)c3c2C(C)C)cn2ncnc2c1C [Example 180] | 0.17 | < 0.05 | – | –
Cc1c(-c2[nH]c3sc([C@@H]4C[C@@H]5C[C@H]4CN5CCS(=O)(=O)N(C)C)c(C)c3c2C(C)C)cn2ncnc2c1C [Example 181] | 1.23 | 0.27 | – | –
CNS(=O)(=O)CCN1C[C@@H]2C[C@H]1C[C@H]2c1sc2[nH]c(-c3cn4ncnc4c(C)c3C)c(C(C)C)c2c1C [Example 182] | 0.32 | 0.07 | – | –
Cc1c(-c2[nH]c3sc([C@@H]4C[C@@H]5C[C@H]4CN5CC(=O)NC4CC4)c(C)c3c2C(C)C)cn2ncnc2c1C [Example 184] | 0.34 | 1.27 | – | –
Cc1c(-c2[nH]c3sc([C@@H]4C[C@@H]5C[C@H]4CN5CC(=O)NC(C)C)c(C)c3c2C(C)C)cn2ncnc2c1C [Example 185] | 0.57 | 1.89 | – | –
CCNC(=O)CN1C[C@@H]2C[C@H]1C[C@H]2c1sc2[nH]c(-c3cn4ncnc4c(C)c3C)c(C(C)C)c2c1C [Example 186] | 0.45 | 0.66 | – | –
Cc1c(-c2[nH]c3sc(C4CC5(CC(N)C5)C4)c(C)c3c2C(C)C)cn2ncnc2c1C (stereo not shown) [Example 187] | 1.09 | 0.2 | – | –
Cc1c(-c2[nH]c3sc(C4CC5(C4)CC(N(C4COC4)C4COC4)C5)c(C)c3c2C(C)C)cn2ncnc2c1C (stereo not shown) [Example 188] | 27.2 | 5.64 | – | –
Cc1c(C2C[C@H]3CC[C@@H]2CN3)sc2[nH]c(-c3cc(C)c4ncnn4c3)c(C(C)C)c12 (stereo partly shown) [Example 189] | 30.9 | 2.23 | – | –
Cc1c(C2CC2C(=O)N2CCNCC2)sc2[nH]c(-c3cc(C)c4ncnn4c3)c(C(C)C)c12 (stereo not shown) [Example 192] | > 1000 | 274 | – | –
Cc1c(C23CNCC2C3)sc2[nH]c(-c3cc(C)c4ncnn4c3)c(C(C)C)c12 (stereo not shown) [Example 193] | 2.87 | 0.2 | – | –
Cc1c(C23CNCCC2C3)sc2[nH]c(-c3cc(C)c4ncnn4c3)c(C(C)C)c12 (stereo not shown) [Example 194] | 9.52 | 0.2 | – | –
Cc1c(C23CCNCC2C3)sc2[nH]c(-c3cc(C)c4ncnn4c3)c(C(C)C)c12 (stereo not shown) [Example 195] | 2.12 | 0.05 | – | –
Cc1c(C23CC2CCN(CC(N)=O)C3)sc2[nH]c(-c3cc(C)c4ncnn4c3)c(C(C)C)c12 (stereo not shown) [Example 196] | 69.5 | 0.72 | – | –
Cc1c(C23CC2CN(CC(N)=O)C3)sc2[nH]c(-c3cc(C)c4ncnn4c3)c(C(C)C)c12 (stereo not shown) [Example 197] | 29.8 | 1.74 | – | –
Cc1c(C23CNCC2C3(F)F)sc2[nH]c(-c3cc(C)c4ncnn4c3)c(C(C)C)c12 (stereo not shown) [Example 198] | 13.8 | 5.06 | – | –
Cc1c(C23CCN(CC(N)=O)CC2C3)sc2[nH]c(-c3cc(C)c4ncnn4c3)c(C(C)C)c12 (stereo not shown) [Example 199] | 14.8 | 0.47 | – | –
Cc1c(C23CN(CC(N)=O)CC2C3(F)F)sc2[nH]c(-c3cc(C)c4ncnn4c3)c(C(C)C)c12 (stereo not shown) [Example 200] | 332 | 4.05 | – | –
Cc1c(C2C3CNCC32)sc2[nH]c(-c3cc(C)c4ncnn4c3)c(C(C)C)c12 (stereo not shown) [Example 201] | 0.36 | < 0.05 | – | –
Cc1c(C2C3CN(CC(N)=O)CC32)sc2[nH]c(-c3cc(C)c4ncnn4c3)c(C(C)C)c12 (stereo not shown) [Example 202] | 2.97 | 2.59 | – | –

Structure (SMILES) | EC50 (TLR8; [1]) [nM] | EC50 (TLR7; [2]) [nM] | EC50 (TLR8; TLR-8 EC50, human PBMCs) [nM] | EC50 (TLR7; TLR-7 EC50, human PBMCs) [nM]
Cc1c(CCC2CCN(CC(N)=O)CC2)sc2[nH]c(-c3cc(C)c4ncnn4c3)c(C(C)C)c12 [Example 203] | 6.23 | 4.2 | – | –
Cc1c(C23CCNCC2C3(F)F)sc2[nH]c(-c3cc(C)c4ncnn4c3)c(C(C)C)c12 (stereo not shown) [Example 204] | 30.4 | 0.5 | – | –
Cc1c(C23CCN(CC(N)=O)CC2C3(F)F)sc2[nH]c(-c3cc(C)c4ncnn4c3)c(C(C)C)c12 (stereo not shown) [Example 205] | 230 | 0.6 | – | –
CCc1c(C2CCN(CC(N)=O)CC2)sc2[nH]c(-c3cc(C)c4ncnn4c3)c(C(C)C)c12 [Example 206] | 45.1 | 0.18 | – | –
CCc1c(C2CCN(C(=O)[C@@H]3COCCN3)CC2)sc2[nH]c(-c3cc(C)c4ncnn4c3)c(C(C)C)c12 [Example 207] | 32.2 | 0.19 | – | –
CCc1c(C2CCN(C(=O)[C@H]3COCCN3)CC2)sc2[nH]c(-c3cc(C)c4ncnn4c3)c(C(C)C)c12 [Example 208] | 34.6 | 0.15 | – | –
Cc1c(C2CC23CCNCC3)sc2[nH]c(-c3cc(C)c4ncnn4c3)c(C(C)C)c12 (stereo not shown) [Example 209] | 10.7 | 0.94 | – | –
Cc1c(CC2CCN(CC(N)=O)CC2)sc2[nH]c(-c3cc(C)c4ncnn4c3)c(C(C)C)c12 [Example 210] | 10 | 2.32 | – | –
Cc1c(C2CC23CCN(CC(N)=O)CC3)sc2[nH]c(-c3cc(C)c4ncnn4c3)c(C(C)C)c12 (stereo not shown) [Example 211] | 30.9 | 5.08 | – | –
Cc1c(-c2[nH]c3sc(C45CCN(CCS(C)(=O)=O)CC4C5)c(C)c3c2C(C)C)cn2ncnc2c1C (stereo not shown) [Example 217] | 78.6 | 1.27 | – | –
Cc1c(-c2[nH]c3sc([C@@H]4C[C@@H]5C[C@H]4CN5CCS(C)(=O)=O)cc3c2C(C)C)cn2ncnc2c1C [Example 218] | 0.88 | 0.45 | – | –
Cc1c(-c2[nH]c3sc(C4CCNCC4)cc3c2C(C)C)cn2ncnc2c1C [Example 219] | 3.01 | 0.26 | – | –
Cc1c(-c2[nH]c3sc([C@@H]4C[C@@H]5C[C@H]4CN5)cc3c2C(C)C)cn2ncnc2c1C [Example 220] | 0.64 | 0.11 | – | –
Cc1c(-c2[nH]c3sc(-c4cccc(C5CCNCC5)c4)c(C)c3c2C(C)C)cn2ncnc2c1C [Example 222] | 79.3 | 8.47 | – | –
Cc1c(-c2[nH]c3sc(-c4cccc(C5CCN(CC(N)=O)CC5)c4)c(C)c3c2C(C)C)cn2ncnc2c1C [Example 223] | 66.5 | 15.5 | – | –
Cc1c(-c2[nH]c3sc(-c4cnc(C5CCNCC5)nc4)c(C)c3c2C(C)C)cn2ncnc2c1C [Example 224] | 3.68 | 1.24 | – | –
Cc1c(-c2[nH]c3sc(C4C[C@H]5CC[C@@H]4N5)c(C)c3c2C(C)C)cn2ncnc2c1C (stereo partly shown) [Example 225] | – | – | 6.12 | 0.47
Cc1c(-c2[nH]c3sc(-c4cnc(C5CCN(CC(N)=O)CC5)nc4)c(C)c3c2C(C)C)cn2ncnc2c1C [Example 226] | 1 | 4.14 | – | –
Cc1c(-c2[nH]c3sc(C4C[C@H]5CC[C@@H]4N5CC(N)=O)c(C)c3c2C(C)C)cn2ncnc2c1C (stereo partly shown) [Example 227] | – | – | 15.5 | 5.07
Cc1c(-c2[nH]c3sc(C4CCC45CNC5)c(C)c3c2C(C)C)cn2ncnc2c1C (stereo not shown) [Example 228, 5-(7,8-dimethyl-[1,2,4]triazolo[1,5-a]pyridin-6-yl)-4-isopropyl-3-methyl-2-(2-azaspiro[3.3]heptan-5-yl)-6H-thieno[2,3-b]pyrrole] | 76.2 | 8.77 | – | –
